Test results reported in article doi:10.1101/2024.12.15.628575v1 (biorxiv, 2024).
pIC50: −log10 of the molar value. Like-named read-outs stand apart in the source and are kept apart here.

Key:
human CPT1a [1] = molecular target: T1, human CPT1a (Homo sapiens, UniProt P50416); test: DTNB colorimetric CoA release assay, […] nm, transfected Expi293 pellet extract; assay type: biochemical
T1 sequence (P50416 2-773): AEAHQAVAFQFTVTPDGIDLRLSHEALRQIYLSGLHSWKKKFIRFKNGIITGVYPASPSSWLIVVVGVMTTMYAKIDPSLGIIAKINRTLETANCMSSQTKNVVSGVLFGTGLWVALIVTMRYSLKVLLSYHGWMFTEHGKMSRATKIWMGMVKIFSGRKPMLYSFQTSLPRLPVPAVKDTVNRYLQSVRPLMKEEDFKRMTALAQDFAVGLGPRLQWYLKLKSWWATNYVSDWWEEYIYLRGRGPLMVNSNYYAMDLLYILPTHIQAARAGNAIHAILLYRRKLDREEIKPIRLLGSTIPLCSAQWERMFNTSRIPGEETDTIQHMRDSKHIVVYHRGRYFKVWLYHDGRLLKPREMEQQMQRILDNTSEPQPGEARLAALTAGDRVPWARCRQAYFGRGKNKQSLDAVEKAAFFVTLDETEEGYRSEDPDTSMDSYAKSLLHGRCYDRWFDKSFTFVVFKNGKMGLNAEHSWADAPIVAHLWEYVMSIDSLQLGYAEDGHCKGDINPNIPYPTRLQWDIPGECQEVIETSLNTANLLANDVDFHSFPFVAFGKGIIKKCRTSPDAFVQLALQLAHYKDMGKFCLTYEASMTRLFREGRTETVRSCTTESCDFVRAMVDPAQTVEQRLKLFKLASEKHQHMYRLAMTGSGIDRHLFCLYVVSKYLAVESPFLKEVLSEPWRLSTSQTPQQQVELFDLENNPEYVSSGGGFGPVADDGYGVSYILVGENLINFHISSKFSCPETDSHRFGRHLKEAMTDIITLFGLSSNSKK

human CPT1a [2] = molecular target: T1, human CPT1a; test: as above; assay type: cell-based

Row | pIC50 (human CPT1a [1]) | pIC50 (human CPT1a [2]) | Compound
1 | 3.75 |  | CN(C)CCCN1c2ccccc2Sc2ccc(Cl)cc21 [chlorpromazine]
2 | 2.33 |  | O=C(O)[C@@]1(CCCCCCOc2ccc(Cl)cc2)CO1 [etomoxir]
3 |  | 3.50 | C1CCC(C(CC2CCCCN2)C2CCCCC2)CC1 (stereo not drawn) [perhexiline]
